One experiment deals with Puccinia triticina. Briefly: Wheat brown rust (PUCCRT) disease control on wheat seedlings. The conditions noted are these: for PUCCRT 1DP disease control rating, HV activity at 100 ppm / PUCCRT 3DC disease control rating, HV activity at 100 ppm: high volume application; for PUCCRT 1DP disease control rating, HV activity at 100 ppm / PUCCRT 1DP disease control rating, LV activity at 125.1 g/H: 1 day protectant; for PUCCRT 3DC disease control rating, HV activity at 100 ppm / PUCCRT 3DC disease control rating, LV activity at 125.1 g/H: 3 day curative; for PUCCRT 1DP disease control rating, LV activity at 125.1 g/H / PUCCRT 3DC disease control rating, LV activity at 125.1 g/H / PUCCRT 1DP, LV activity at 125.1 g/H (% Control rating) / PUCCRT 3DC, LV activity at 125.1 g/H (% Control rating): low volume application; for PUCCRT 1DP disease control rating, HV activity / PUCCRT 3DC disease control rating, HV activity: HV application at 100 ppm, wheat brown rust; for PUCCRT 1DP disease control rating, HV activity / PUCCRT 1DP, LV activity at 125.1 g/H (% Control rating): 1 Day Protectant; for PUCCRT 3DC disease control rating, HV activity / PUCCRT 3DC, LV activity at 125.1 g/H (% Control rating): 3 Day Curative. Set-up: key to PUCCRT 3DC, HV activity at 100 ppm (% control rating) / PUCCRT disease control, 3DC / PUCCRT 1DP disease control rating, HV activity / PUCCRT 3DC disease control rating, HV activity / PUCCRT 3DC, LV activity at 125.1 g/H (% Control rating) / PUCCRT 1DP, LV activity at 125.1 g/H (% Control rating) / PUCCRT 3DC disease control rating, LV activity at 125.1 g/H / PUCCRT 1DP disease control rating, LV activity at 125.1 g/H / PUCCRT 3DC disease control rating, HV activity at 100 ppm / PUCCRT 1DP disease control rating, HV activity at 100 ppm / HV activity at 100 ppm PUCCRT 3DC (disease control rating) / LV activity at 125.1 g/H PUCCRT 1DP (disease control rating) / LV activity at 125.1 g/H PUCCRT 3DC (disease control rating): A: > 80; B: ≤ 80; C: Not Tested; D: No Activity Observed in the Reported Assay. The experiment is classed as in vivo.

In the next experiment the test system is Zymoseptoria tritici. As to the kind of experiment: Leaf blotch of wheat (SEPTTR) disease control on wheat seedlings. The experiment is classed as in vivo. On the set-up: key to SEPTTR 1DP, HV activity at 100 ppm (% control rating) / SEPTTR 3DC, HV activity at 100 ppm (% control rating) / SEPTTR disease control, 1DP / SEPTTR disease control, 3DC / SEPTTR 1DP disease control rating, HV activity / SEPTTR 3DC disease control rating, HV activity / SEPTTR 3DC, LV activity at 125.1 g/H (% Control rating) / SEPTTR 1DP, LV activity at 125.1 g/H (% Control rating) / SEPTTR 1DP disease control rating, LV activity at 125.1 g/H / SEPTTR 3DC disease control rating, LV activity at 125.1 g/H / SEPTTR 3DC disease control rating, HV activity at 100 ppm / SEPTTR 1DP disease control rating, HV activity at 100 ppm / HV activity at 100 ppm SEPTTR 3DC (disease control rating) / HV activity at 100 ppm SEPTTR 1DP (disease control rating) / LV activity at 125.1 g/H SEPTTR 1DP (disease control rating) / LV activity at 125.1 g/H SEPTTR 3DC (disease control rating): A: > 80; B: ≤ 80; C: Not Tested; D: No Activity Observed in the Reported Assay. The conditions noted are these: for SEPTTR 1DP disease control rating, HV activity at 100 ppm / SEPTTR 3DC disease control rating, HV activity at 100 ppm: high volume application; for SEPTTR 1DP disease control rating, HV activity at 100 ppm / SEPTTR 1DP disease control rating, LV activity at 125.1 g/H: 1 day protectant; for SEPTTR 3DC disease control rating, HV activity at 100 ppm / SEPTTR 3DC disease control rating, LV activity at 125.1 g/H: 3 day curative; for SEPTTR 1DP disease control rating, LV activity at 125.1 g/H / SEPTTR 3DC disease control rating, LV activity at 125.1 g/H / SEPTTR 1DP, LV activity at 125.1 g/H (% Control rating) / SEPTTR 3DC, LV activity at 125.1 g/H (% Control rating): low volume application; for SEPTTR 1DP disease control rating, HV activity / SEPTTR 3DC disease control rating, HV activity: HV application at 100 ppm, wheat leaf blotch; for SEPTTR 1DP disease control rating, HV activity / SEPTTR 1DP, LV activity at 125.1 g/H (% Control rating): 1 Day Protectant; for SEPTTR 3DC disease control rating, HV activity / SEPTTR 3DC, LV activity at 125.1 g/H (% Control rating): 3 Day Curative.

Molecules are shown by their SMILES.

This note sets out measurements from patent US20180000085A1, “USE OF PICOLINAMIDE COMPOUNDS WITH FUNGICIDAL ACTIVITY” (DOW AGROSCIENCES LLC, priority 2014, published 2018).

On to `COc1ccnc(C(=O)N[C@@H](C)C(=O)O[C@@H](C)[C@H](Oc2ccc(C)cc2)C2CC2)c1O` [Cmpd 1010], for which, in the experiment with Puccinia triticina, the “PUCCRT 1DP disease control rating, HV activity at 100 ppm” value was “A (> 80)” and the “PUCCRT 3DC disease control rating, HV activity at 100 ppm” value was “A (> 80)”. In the experiment on Zymoseptoria tritici, the “SEPTTR 1DP disease control rating, HV activity at 100 ppm” value is recorded as “B (≤ 80)” and the “SEPTTR 3DC disease control rating, HV activity at 100 ppm” value is recorded as “B (≤ 80)”.
Regarding `C=CC[C@@H](Oc1ccccc1)[C@H](C)OC(=O)[C@H](C)NC(=O)c1nccc(OC)c1OCOC(C)=O` [Cmpd 698], in the experiment with Puccinia triticina, the “PUCCRT 1DP disease control rating, LV activity at 125.1 g/H” value is “A (> 80)” and the “PUCCRT 3DC disease control rating, LV activity at 125.1 g/H” value was “A (> 80)”. Also, in the experiment with Zymoseptoria tritici, the “SEPTTR 1DP disease control rating, LV activity at 125.1 g/H” value is recorded as “B (≤ 80)” and the “SEPTTR 3DC disease control rating, LV activity at 125.1 g/H” value is given as “A (> 80)”.
As to `COc1ccnc(C(=O)N[C@@H](C)C(=O)O[C@@H](C)COCC(C)C)c1O` [Cmpd 339], in the experiment on Puccinia triticina, the “PUCCRT 1DP disease control rating, HV activity” value is recorded as “B (≤ 80)” and the “PUCCRT 3DC disease control rating, HV activity” value is on record as “A (> 80)”. In the experiment with Zymoseptoria tritici, the “SEPTTR 1DP disease control rating, HV activity” value is on record as “B (≤ 80)” and the “SEPTTR 3DC disease control rating, HV activity” value is given as “D”.
As for `CCCOCC(C)OC(=O)C(C)NC(=O)c1nccc(OC)c1OCOC(=O)C(C)C` (centres unmarked) [Cmpd 523], in the experiment with Puccinia triticina, the “PUCCRT 1DP, LV activity at 125.1 g/H (% Control rating)” value (from here on “PUCCRT 1DP … (% Control rating)”) is “D” and the “PUCCRT 3DC, LV activity at 125.1 g/H (% Control rating)” value (“PUCCRT 3DC … (% Control rating)” below) is given as “D”. Also, in the experiment with Zymoseptoria tritici, the “SEPTTR 1DP, LV activity at 125.1 g/H (% Control rating)” value (shortened to “SEPTTR 1DP … (% Control rating)”) is recorded as “D” and the “SEPTTR 3DC, LV activity at 125.1 g/H (% Control rating)” value (“SEPTTR 3DC … (% Control rating)” for short) is “D”.
Regarding `COc1ccnc(C(=O)N[C@@H](C)C(=O)O[C@@H](C)[C@H](Oc2ccc(C)cc2Cl)C2CC2)c1O` [Cmpd 1005], in the experiment on Puccinia triticina, the “PUCCRT 1DP disease control rating, HV activity at 100 ppm” value was “A (> 80)” and the “PUCCRT 3DC disease control rating, HV activity at 100 ppm” value is “A (> 80)”. Moreover, in the experiment on Zymoseptoria tritici, the “SEPTTR 1DP disease control rating, HV activity at 100 ppm” value is reported as “B (≤ 80)” and the “SEPTTR 3DC disease control rating, HV activity at 100 ppm” value is recorded as “B (≤ 80)”.
For `CCC(CC)[C@@H](OCC1CC1)[C@H](C)OC(=O)[C@H](C)NC(=O)c1nccc(OC)c1O` [Cmpd 353], in the experiment with Puccinia triticina, the “PUCCRT 1DP disease control rating, HV activity” value is “A (> 80)” and the “PUCCRT 3DC disease control rating, HV activity” value is reported as “A (> 80)”. For the same molecule, in the experiment on Zymoseptoria tritici, the “SEPTTR 1DP disease control rating, HV activity” value is on record as “B (≤ 80)” and the “SEPTTR 3DC disease control rating, HV activity” value was “B (≤ 80)”.
For the molecule `CC[C@@H](Cc1ccccc1)[C@H](Oc1ccccc1)[C@H](C)OC(=O)[C@H](C)NC(=O)c1nccc(OC)c1O` [Cmpd 313], in the experiment on Puccinia triticina, the “PUCCRT 1DP disease control rating, HV activity” value is listed as “A (> 80)” and the “PUCCRT 3DC disease control rating, HV activity” value is reported as “A (> 80)”. In the experiment with Zymoseptoria tritici, the “SEPTTR 1DP disease control rating, HV activity” value is on record as “A (> 80)” and the “SEPTTR 3DC disease control rating, HV activity” value is reported as “B (≤ 80)”.
For `COc1ccnc(C(=O)NC(C)C(=O)OC(C)C(Oc2ccc(C)cc2Cl)C2CCCC2)c1OCOC(C)=O` (centres unmarked) [Cmpd 913], in the experiment with Puccinia triticina, the “PUCCRT 1DP disease control rating, LV activity at 125.1 g/H” value was “A (> 80)” and the “PUCCRT 3DC disease control rating, LV activity at 125.1 g/H” value is listed as “B (≤ 80)”. Besides, in the experiment with Zymoseptoria tritici, the “SEPTTR 1DP disease control rating, LV activity at 125.1 g/H” value is given as “D” and the “SEPTTR 3DC disease control rating, LV activity at 125.1 g/H” value is reported as “B (≤ 80)”.
For the molecule `COc1ccnc(C(=O)N[C@@H](C)C(=O)O[C@@H](C)[C@H](OC(=O)C(C)C)C(C)C)c1OCOC(C)=O` [Cmpd 623], in the experiment on Puccinia triticina, the “PUCCRT 1DP … (% Control rating)” value is given as “A (> 80)” and the “PUCCRT 3DC … (% Control rating)” value was “A (> 80)”. Further, in the experiment on Zymoseptoria tritici, the “SEPTTR 1DP … (% Control rating)” value is “D” and the “SEPTTR 3DC … (% Control rating)” value is on record as “B (≤ 80)”.
Regarding `COc1ccnc(C(=O)N[C@@H](CC(C)C)C(=O)O[C@@H](C)[C@H](Oc2ccccc2)C(C)C)c1O` [Cmpd 813], in the experiment with Puccinia triticina, the “PUCCRT 1DP disease control rating, HV activity at 100 ppm” value is “B (≤ 80)” and the “PUCCRT 3DC disease control rating, HV activity at 100 ppm” value is “D”. Also, in the experiment on Zymoseptoria tritici, the “SEPTTR 1DP disease control rating, HV activity at 100 ppm” value is “D” and the “SEPTTR 3DC disease control rating, HV activity at 100 ppm” value is “B (≤ 80)”.
Regarding `CCCOCC(C)OC(=O)C(C)NC(=O)c1nccc(OC)c1OC(C)=O` (centres unmarked) [Cmpd 521], in the experiment on Puccinia triticina, the “PUCCRT 1DP … (% Control rating)” value is “D” and the “PUCCRT 3DC … (% Control rating)” value was “D”. Further, in the experiment on Zymoseptoria tritici, the “SEPTTR 1DP … (% Control rating)” value is “D” and the “SEPTTR 3DC … (% Control rating)” value is given as “D”.
